Source: PubChem BioAssay AID248 (DTP/NCI, 2004)
Where “and” joins values, the source holds several entries; their conditions need not be identical. Identical values can stand only once. Toxic doses and inconclusive results are not listed. No stated cut-off is given here; in the data, active means T/C of 150% or more; inactive means T/C below 125%.

Test system: L1210 leukemia ip in BDF1 mice, survival T/C
Experiment: NCI In Vivo Anticancer Drug Screen. Data for tumor model L1210 Leukemia (intraperitoneal) in B6D2F1 (BDF1) mice
Conditions: endpoint: mean survival time, higher = longer survival
Outline: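 Ratio derived from survival: compound-dosed mice over vehicle-dosed mice, all bearing a transplantable tumor.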

[1] = dose: 50.0 mg/kg/injection, schedule: Q01DX009 (ip), vehicle: saline with Tween-80
[2] = dose: 100.0 mg/kg/injection, schedule: Q04DX003 (ip), vehicle: saline with Tween-80
[3] = dose: 200.0 mg/kg/injection, schedule: Q01DX009 (ip), vehicle: saline with Tween-80
[4] = dose: 200.0 mg/kg/injection, schedule: Q04DX003 (ip), vehicle: saline with Tween-80
[5] = dose: 400.0 mg/kg/injection, schedule: Q04DX003 (ip), vehicle: saline with Tween-80
[6] = dose: 100.0 mg/kg/injection, schedule: Q01DX001 (ip), vehicle: saline
[7] = dose: 200.0 mg/kg/injection, schedule: Q01DX001 (ip), vehicle: saline
[8] = dose: 400.0 mg/kg/injection, schedule: Q01DX001 (ip), vehicle: saline
[9] = dose: 200.0 mg/kg/injection, schedule: Q01DX009 (ip), vehicle: Klucel (hydroxypropylcellulose) (HPC)
[10] = dose: 400.0 mg/kg/injection, schedule: Q01DX009 (ip), vehicle: Klucel (hydroxypropylcellulose) (HPC)

Measured: T/C

O=[N+]([O-])c1cccc2c1CCCC2
inactive: dose: 12.5 mg/kg/injection, schedule: Q01DX009 (ip), vehicle: saline with Tween-80 98 % of control | dose: 25.0 mg/kg/injection, schedule: Q01DX009 (ip), vehicle: saline with Tween-80 93 % of control | [1] 98 % of control | [2] 107 % of control | [3] 87 % of control | [4] 105 % of control | dose: 400.0 mg/kg/injection, schedule: Q01DX009 (ip), vehicle: saline with Tween-80 105 % of control | [5] 96 % of control

CC1=CC(=O)C(C)(C)CC1
inactive: [1] 96 % of control | dose: 100.0 mg/kg/injection, schedule: Q01DX009 (ip), vehicle: saline with Tween-80 92 % of control | [3] 100 % of control

c1ccc(C(NC(c2ccccc2)c2ccccc2)c2ccccc2)cc1
inactive: dose: 50.0 mg/kg/injection, schedule: Q01DX001 (ip), vehicle: saline 91 % of control | [6] 97 % of control | [7] 93 % of control | [8] 97 % of control

Cc1cnc(SC(C)(C)C)c(C)c1
inactive: [6] 109 % of control | dose: 100.0 mg/kg/injection, schedule: Q01DX009 (ip), vehicle: saline 100 % of control | dose: 100.0 mg/kg/injection, schedule: Q04DX002 (ip), vehicle: Klucel (hydroxypropylcellulose) (HPC) 98 % of control and 100 % of control | [2] 108 % of control | [7] 107 % of control | dose: 200.0 mg/kg/injection, schedule: Q01DX009 (ip), vehicle: saline 94 % of control and 104 % of control | dose: 200.0 mg/kg/injection, schedule: Q04DX002 (ip), vehicle: Klucel (hydroxypropylcellulose) (HPC) 100 % of control and 106 % of control | [4] 102 % of control | [8] 109 % of control | dose: 400.0 mg/kg/injection, schedule: Q01DX009 (ip), vehicle: saline 100 % of control and 107 % of control | dose: 400.0 mg/kg/injection, schedule: Q04DX002 (ip), vehicle: Klucel (hydroxypropylcellulose) (HPC) 95 % of control and 97 % of control | [5] 91 % of control

O=C1NCCc2c1sc1ccccc21
inactive: dose: 100.0 mg/kg/injection, schedule: Q01DX001 (ip), vehicle: carboxymethylcellulose (CMC) 95 % of control | dose: 400.0 mg/kg/injection, schedule: Q01DX001 (ip), vehicle: carboxymethylcellulose (CMC) 90 % of control

CCC(C)C1NC(=O)C(NC(=O)c2c3nc4c(C(=O)NC5C(=O)NC(C(C)CC)C(=O)N6CCCC6C(=O)N(C)CC(=O)N(C)C(C(C)C)C(=O)OC5C)cc(N)c(C)c4oc-3c(C)c(=O)c2N)C(C)OC(=O)C(C(C)C)N(C)C(=O)CN(C)C(=O)C2CCCN2C1=O (centres undefined)
inactive: dose: 75.0 micrograms/kg/injection, schedule: Q01DX009 (ip), vehicle: saline + alcohol 119 % of control | dose: 100.0 micrograms/kg/injection, schedule: Q01DX009 (ip), vehicle: saline + alcohol 121 % of control | dose: 150.0 micrograms/kg/injection, schedule: Q01DX009 (ip), vehicle: saline + alcohol 124 % of control | dose: 300.0 micrograms/kg/injection, schedule: Q01DX009 (ip), vehicle: saline + alcohol 105 % of control | dose: 300.0 micrograms/kg/injection, schedule: Q04DX003 (ip), vehicle: saline + alcohol 122 % of control | dose: 400.0 micrograms/kg/injection, schedule: Q01DX009 (ip), vehicle: saline + alcohol 86 % of control

CC/C(C)=C\CC/C(C)=C\COc1ccccc1C
inactive: dose: 100.0 mg/kg/injection, schedule: Q04DX002 (ip), vehicle: saline with Tween-80 91 % of control | dose: 200.0 mg/kg/injection, schedule: Q04DX002 (ip), vehicle: saline with Tween-80 94 % of control | dose: 400.0 mg/kg/injection, schedule: Q04DX002 (ip), vehicle: saline with Tween-80 89 % of control

CCCCC(CC)CCC(O)CC(C)C (centres undefined)
inactive: dose: 50.0 mg/kg/injection, schedule: Q04DX003 (ip), vehicle: Klucel (hydroxypropylcellulose) (HPC) 91 % of control | dose: 100.0 mg/kg/injection, schedule: Q01DX009 (ip), vehicle: Klucel (hydroxypropylcellulose) (HPC) 104 % of control | dose: 100.0 mg/kg/injection, schedule: Q04DX003 (ip), vehicle: Klucel (hydroxypropylcellulose) (HPC) 92 % of control | [9] 101 % of control | dose: 200.0 mg/kg/injection, schedule: Q04DX003 (ip), vehicle: Klucel (hydroxypropylcellulose) (HPC) 97 % of control | [10] 89 % of control | dose: 400.0 mg/kg/injection, schedule: Q04DX003 (ip), vehicle: Klucel (hydroxypropylcellulose) (HPC) 96 % of control

COc1cc(C=Nc2cccc(C(=O)O)c2)ccc1N(CCCl)CCCl
inactive: dose: 50.0 mg/kg/injection, schedule: Q01DX001 (ip), vehicle: carboxymethylcellulose (CMC) 117 % of control

Nc1ccc2nc3ccc(N)cc3[n+](-c3ccccc3)c2c1
inactive: dose: 5.0 mg/kg/injection, schedule: Q01DX001 (ip), vehicle: other 111 % of control | dose: 10.0 mg/kg/injection, schedule: Q01DX001 (ip), vehicle: other 108 % of control | dose: 18.0 mg/kg/injection, schedule: Q01DX001 (ip), vehicle: other 101 % of control and 103 % of control | dose: 20.0 mg/kg/injection, schedule: Q01DX001 (ip), vehicle: other 108 % of control | dose: 27.0 mg/kg/injection, schedule: Q01DX001 (ip), vehicle: other 106 % of control and 118 % of control | dose: 40.0 mg/kg/injection, schedule: Q01DX001 (ip), vehicle: other 110 % of control and 114 % of control | dose: 60.0 mg/kg/injection, schedule: Q01DX001 (ip), vehicle: other 104 % of control

CS(=O)(=O)N(CC(=O)O)Cc1ccc(F)cc1
inactive: dose: 100.0 mg/kg/injection, schedule: Q01DX009 (ip), vehicle: other 103 % of control | dose: 100.0 mg/kg/injection, schedule: Q04DX003 (ip), vehicle: other 98 % of control | dose: 200.0 mg/kg/injection, schedule: Q01DX009 (ip), vehicle: other 102 % of control | dose: 200.0 mg/kg/injection, schedule: Q04DX003 (ip), vehicle: other 104 % of control | dose: 400.0 mg/kg/injection, schedule: Q01DX009 (ip), vehicle: other 97 % of control | dose: 400.0 mg/kg/injection, schedule: Q04DX003 (ip), vehicle: other 94 % of control

CCNC(=O)N1CCN(c2ccc(Cl)cc2)CC1
inactive: dose: 40.0 mg/kg/injection, schedule: Q04DX003 (ip), vehicle: saline 101 % of control | dose: 75.0 mg/kg/injection, schedule: Q01DX001 (ip), vehicle: saline 97 % of control | dose: 75.0 mg/kg/injection, schedule: Q04DX003 (ip), vehicle: saline 98 % of control | dose: 150.0 mg/kg/injection, schedule: Q01DX001 (ip), vehicle: saline 101 % of control | dose: 150.0 mg/kg/injection, schedule: Q04DX003 (ip), vehicle: saline 95 % of control

O=C(CC(NC(=O)OCc1ccccc1)C(=O)OCc1ccccc1)OCc1ccccc1 (centres undefined)
inactive: [9] 88 % of control | [10] 89 % of control

COC1OCC(NC(C)=O)C(OC(C)=O)C1OC(C)=O (centres undefined)
inactive: dose: 50.0 mg/kg/injection, schedule: Q01DX001 (sc), vehicle: saline 104 % of control | dose: 100.0 mg/kg/injection, schedule: Q01DX001 (sc), vehicle: saline 101 % of control | dose: 200.0 mg/kg/injection, schedule: Q01DX001 (sc), vehicle: saline 111 % of control | dose: 400.0 mg/kg/injection, schedule: Q01DX001 (sc), vehicle: saline 95 % of control

CC(C)NC(=O)C1C2CCC(CC2)C1C(=O)NC(C)C (centres undefined)
inactive: [2] 96 % of control | [4] 86 % of control | [5] 86 % of control

C1CCC2OC3(CC2C1)OC1CCCCC1O3 (centres undefined)
inactive: dose: 75.0 mg/kg/injection, schedule: Q04DX002 (ip), vehicle: saline + alcohol 101 % of control | dose: 150.0 mg/kg/injection, schedule: Q04DX002 (ip), vehicle: saline + alcohol 116 % of control | dose: 300.0 mg/kg/injection, schedule: Q04DX002 (ip), vehicle: saline + alcohol 105 % of control

CSc1ncnc2c1ncn2NCC1OC(C)OCC1O (centres undefined)
inactive: dose: 100.0 mg/kg/injection, schedule: Q01DX001 (ip), vehicle: Klucel (hydroxypropylcellulose) (HPC) 96 % of control | dose: 200.0 mg/kg/injection, schedule: Q01DX001 (ip), vehicle: Klucel (hydroxypropylcellulose) (HPC) 98 % of control

CC1OCC(C)C(C)(C)O1 (centres undefined)
inactive: dose: 50.0 mg/kg/injection, schedule: Q01DX009 (ip), vehicle: acetone 100 % of control | dose: 100.0 mg/kg/injection, schedule: Q01DX009 (ip), vehicle: acetone 90 % of control | dose: 100.0 mg/kg/injection, schedule: Q04DX003 (ip), vehicle: acetone 112 % of control | dose: 200.0 mg/kg/injection, schedule: Q01DX009 (ip), vehicle: acetone 89 % of control | dose: 200.0 mg/kg/injection, schedule: Q04DX003 (ip), vehicle: acetone 108 % of control | dose: 400.0 mg/kg/injection, schedule: Q04DX003 (ip), vehicle: acetone 103 % of control
